{"source": "patent US9658212B2", "about": "“Process for evaluating active agent(s) capable of preserving the functionality of epithelial stem cells” (L'OREAL, priority 2012, dated 2017)", "key": {"[1]": {"system": "gene encoding carbonic anhydrase IX", "test": "Transcriptomic analysis (RT-qPCR) of the carbonic anhydrase IX gene in hair bulbs cultured ex vivo", "type": "cell-based, human", "settings": "whole hair bulbs, 4 hours incubation, normoxic conditions (21% dioxygen), compared with hypoxic conditions (3% dioxygen)", "from_the_text": "A second evaluation process may consist in carrying out a transcriptomic analysis of carbonic anhydrase IX, of which the expression of the corresponding gene is modified by a hypoxic signal, using the RT-qPCR technique, on keratin materials, for example on in vitro cultures of keratinocytes or hair bulbs isolated by microdissection and placed in culture ex vivo, under hypoxic conditions, and under normoxic conditions in the presence or absence of said active agent(s) to be tested, in order to study whether the active agent(s) is (are) capable of mimicking a hypoxic state.\nThis second process consists in carrying out a transcriptomic analysis of the gene encoding carbonic anhydrase IX, the expression of which is modified by a hypoxic signal, using the RT-qPCR technique, on hair bulbs isolated by microdissection at the level of the human scalp hypodermis and placed in culture ex vivo for 4 hours either under hypoxic conditions (3% dioxygen) or at 21% dioxygen, in the absence (control) or in the presence of diethyl pyridine-2,4 dicarboxylate."}, "HIF1-alpha protein": {"system": "HIF1-alpha protein", "test": "Western blotting of the level of expression/stabilization of the HIF1-alpha protein in outer sheath keratinocytes", "type": "cell-based, human", "settings": "keratinocyte cultures under normoxic conditions (21% oxygen)", "from_the_text": "This third example consists in carrying out an analysis of the level of expression/stabilization of the HIF1-alpha protein using the Western blotting technique as a basis. To summarise, under normoxic conditions, the HIF1-alpha protein is hydroxylated on a proline residue (reaction catalyzed by a prolyl hydroxylase), ubiquitinylated and then degraded by the proteasome. Under hypoxic conditions, the HIF1-alpha protein is not hydroxylated and its expression level is maintained. To characterize the effect of diethyl pyridine-2,4-dicarboxylate on the level of expression/stabilization of HIF1-alpha, a protein extract was prepared on cultures of keratinocytes derived from the outer sheath of human hair follicles maintained and placed in culture under hypoxic conditions or under normoxic conditions, in the absence or presence of diethyl pyridine-2,4-dicarboxylate. […] In this regard, it may be stated that the effect of diethyl pyridine-2,4-dicarboxylate under normoxic conditions mimics the effect of hypoxic conditions on the expression/stabilization of the HIF1-alpha protein."}, "[2]": {"system": "keratinocytes from the outer sheath of human hair follicles", "test": "CFE (Colony-forming efficiency) test for keratinocytes (including epithelial stem cells)", "type": "cell-based", "settings": "21% dioxygen, 50 to 500 μM, 10 days culture", "from_the_text": "It is possible to optionally add to these two evaluation processes a process aimed at establishing the impact of the active agent(s) capable of mimicking hypoxia on the quality of the epithelial stem cells. To do this, a CFE (Colony-forming efficiency) test can be carried out for keratinocytes (including epithelial stem cells), consisting in observing, respectively, under hypoxic conditions and under normoxic conditions in the presence or absence of active agent(s), the impact of the presence of the active agent(s) on the frequency of the cells capable of generating a cell clone within a given population, and also on the clonal morphology obtained, so as to thus establish their participation in the preservation of the functionality of the epithelial stem cells treated with the active agent(s). […]\nNext, the cells of the outer epithelial sheath thus extracted from the hair follicles and dissected are subsequently seeded in a proportion of 1000 cells/culture dish under CFE conditions, on a layer of irradiated 3T3 fibroblasts. […] At the end of the clonogenic culture and after fixing (via 70% ethanol) and staining (incubation with eosin, rinsing and then incubation with BlueRAL 555) of the cell clones obtained, the morphology of the clones and of the cells making up these clones is analyzed."}}, "note": "“Also recorded” adds a separate entry of the source.", "data": [{"smiles": "CCOC(=O)c1ccnc(C(=O)OCC)c1", "note": "[diethyl pyridine-2,4-dicarboxylate]", "values": [{"measurement": "expression of carbonic anhydrase 9 (molecular profile)", "setting": "[1]", "result": "induces a molecular profile similar to that induced by hypoxia"}, {"measurement": "level of expression/stabilization of the HIF1-alpha protein", "setting": "HIF1-alpha protein", "result": "induces an increase in the amount of protein detected"}, {"measurement": "number of clones", "setting": "[2]; vs 21% dioxygen control conditions", "result": "does not significantly decrease"}, {"measurement": "clonal morphology", "setting": "[2]; vs untreated 21% dioxygen control", "result": "less diffuse and less dense than the controls; also recorded: generates clones similar to those obtained under hypoxic conditions"}]}]}
